Cc1ccc(Cl)c2c1NC(=O)C2OC(=O)Cc1ccccc1 (stereo not given) gave a logP of 3.19. Compound CCCCC1(O)C(=O)Nc2ccccc2C1=CC(=O)O (stereo not given) has a logP of 2.18. Compound CN1C(=O)C(O)(Cc2ccccc2)C(=CC(=O)O)c2ccccc21 (stereo not given) has a logP of 2.31. With Cc1cc(C)c2c(c1)NC(=O)C2OC(=O)Cc1ccccc1 (stereo not given) the logP was 3.22. For CCOC(=O)C=C1c2ccccc2NC(=O)C1(O)Cc1ccccc1 (stereo not given), the logP was 4.16. In the case of CCCCC(=O)OC1C(=O)Nc2cc(C)cc(C)c21 (stereo not given), the logP is reported as 3.19. For CCCCC1(O)C(=O)N(C)c2ccccc2C1=CC(=O)OCC (stereo not given), the logP was 4.21. CCCCC1(O)C(=O)Nc2ccccc2C1=CC(=O)OCC (stereo not given) showed a logP of 4.47. O=C(O)C=C1c2ccccc2N(c2ccccc2)C(=O)C1(O)c1ccccc1 (stereo not given) gave a logP of 2.83. CCOC(=O)C=C1c2ccccc2N(C)C(=O)C1(O)Cc1ccccc1 (stereo not given) gave a logP of 4.75. CCCCC1(O)C(=O)N(C)c2ccccc2C1=CC(=O)O (stereo not given) gave a logP of 2.23. With CCCCC(=O)OC1C(=O)Nc2c(C)ccc(C)c21 (stereo not given) the logP was 3.2. Compound O=C(O)C=C1c2ccccc2NC(=O)C1(O)Cc1ccccc1 (stereo not given) has a logP of 2.27. For O=C(O)C=C1c2ccccc2N(c2ccccc2)C(=O)C1(O)Cc1ccccc1 (stereo not given), the logP was 2.57. In the case of CCCCC1(O)C(=O)N(c2ccccc2)c2ccccc2C1=CC(=O)O (stereo not given), the logP is reported as 2.44.
